# Measurements: patent US20090137652A1, “METHODS FOR NEUROPROTECTION” (priority 2005, published 2009)
# Assays:
# [1] = test system: rats subjected to Li-pilo induced SE; assay: Latency to and frequency of spontaneous recurrent seizures (SRS), lithium-pilocarpine model (Example 1); type: in vivo, rat
# Protocol: All rats received lithium chloride (3 meq/kg, i.p., Sigma, St Louis, Mo., U.S.A.); about 20 h later, animals were placed into plexiglas boxes, in order to record baseline cortical EEG. Methylscopolamine bromide (1 mg/kg, s.c., Sigma) was administered to limit the peripheral effects of the convulsant. SE was induced by injecting pilocarpine hydrochloride (25 mg/kg, s.c., Sigma) 30 min after methyl-scopolamine. The bilateral EEG cortical activity was recorded during the whole duration of SE and behavioral changes were noted.
# The effects of increasing doses of the test compound were studied on 3 groups of rats. The animals of the first group received 10 mg/kg of the test compound, i.p., 1 h after the onset of SE (pilo-TC10) while the animals of groups 2 and 3 received 30 and 60 mg/kg of the test compound (pilo-TC30 and pilo-TC60), respectively.
# Another group was injected with 2 mg/kg diazepam (DZP, i.m.) at 1 h after the onset of SE. This is a standard treatment to improve animals survival after SE (pilo-DZP). The control group received saline instead of pilocarpine and the test compound (saline-saline). The pilo-test compound rats surviving SE were then injected about 10 h after the first test compound injection with a second i.p. injection of the same dose of the test compound and were maintained under a twice daily treatment with the test compound for 6 additional days. Pilo-DZP received a second injection of 1 mg/kg DZP on the day of SE at about 10 h after the first one. Thereafter, Pilo-DZP and saline-saline rats received twice daily an equivalent volume of saline.
# The effects of the test compound on the EEG and on the latency to occurrence of SRS were investigated by daily video recording of the animals for 10 h per day and the recording of the electrographic activity twice a week for 8 h.
# To calculate the frequency of SRS in pilocarpine-exposed rats, the seizure severity and distinguished stage III (clonic seizures of facial muscles and anterior limbs) and stage IV-V seizures (rearing and falling) was considered. The frequency of stage III SRS per week in pilo-DZP and pilo-test compound rats was variable amongst the groups. It was low, constant in the pilo-DZP and pilo-TC60 (with early SRS onset) groups during the first 3 weeks and had disappeared during the 4th week in the pilo-DZP group. […] The frequency of more severe stage IV-V SRS was highest during the first week in most groups, except pilo-TC30 and TC60 with late seizure onset where the SRS frequency was constant over the whole 4 weeks in TC30 group and over the first two weeks in the pilo-TC60 group with late SRS onset in which no stage IV-V seizures where no seizures recorded after the second week.
# [2] = test system: rats subjected to Li-pilo induced SE; assay: Timm staining, mossy fiber sprouting in hippocampus (Example 1); type: in vivo, rat
# Protocol: At 2 months after the onset of spontaneous recurrent seizures, mossy fiber sprouting was examined on rats in the chronic period exposed to the test compound or DZP and in 3 saline-saline rats. Animals were deeply anaesthetized and perfused transcardially with saline followed by 100 ml of 1.15% (w/v) Na2S in 0.1 M phosphate buffer, and 100 ml of 4% (v/v) formaldehyde in 0.1 M phosphate buffer. Brains were removed from skull, post-fixed in 4% formaldehyde during 3-5 h and 40 μm sections were cut on a sliding vibratome and mounted on gelatin-coated slides.
# The following day, sections were developed in the dark in a 26° C. solution of 50% (w/v) arabic gum (160 ml), sodium citrate buffer (30 ml), 5.7% (w/v) hydroquinone (80 ml) and 10% (w/v) silver nitrate (2.5 ml) during 40-45 min. The sections were then rinsed with tap water at 40° C. during at least 45 min, rinsed rapidly with distilled water and allowed to dry. They were dehydrated in ethanol and coverslipped.
# Mossy fiber sprouting was evaluated according to criteria previously described in dorsal hippocampus (Cavazos et al., 1991, J Neurosci 11:2795-2803), which are follows: O— no granules between the tips and crest of the DG; 1—sparse granules in the supragranular region in a patchy distribution between the tips and crest of DG; 2—more numerous granules in a continuous distribution between the tips and crest of DG; 3—prominent granules in a continuous pattern between tips and crest, with occasional patches of confluent granules between tips and crest; 4—prominent granules that form a confluent dense laminar band between tips and crest and 5—confluent dense laminar band of granules that extends into the inner molecular layer.
Compound,"mean delay to becoming epileptic relative to the other groups of animals ([1]; TC 60 mg/kg, subgroup of animals with delayed SRS)","rats in which occurrence of spontaneous seizures was delayed ([1]; TC 60 mg/kg, 4 out of 11)","frequency of stage IV-V SRS ([1]; TC10, TC30 and TC60 (with early SRS onset) groups, first week, significantly reduced vs pilo-DZP)",absence of epilepsy ([1]; TC60 (60 mg/kg)),"latency to SRS ([1]; TC60 (60 mg/kg), subgroup with latency similar to other groups, n=7)","latency to SRS ([1]; TC60 (60 mg/kg), subgroup with much longer delay, mean, n=4)","latency to SRS ([1]; pilo-TC10 (10 mg/kg, 7-day treatment), n=7)","frequency of stage III SRS ([1]; pilo-TC10, weeks 3 and 4)","latency to SRS ([1]; pilo-TC30 (30 mg/kg, 7-day treatment), n=10)","frequency of stage IV-V SRS ([1]; pilo-TC60 group with early SRS onset, weeks 2-4, significantly reduced vs pilo-DZP)","mean Timm score, upper blade of the dentate gyrus ([2]; pilo-TC10, n=7, p=0.032 vs pilo-DZP)","mean Timm score, upper blade of the dentate gyrus ([2]; pilo-TC30, n=10)","mean Timm score, upper blade of the dentate gyrus ([2]; pilo-TC60 subgroup with early SRS occurrence, n=6)","mean Timm score, upper blade of the dentate gyrus ([2]; pilo-TC60 subgroup with late occurrence or absence of SRS, n=5, p=0.016 vs pilo-DZP)","mean Timm score, upper blade of the dentate gyrus ([2]; whole group of pilo-TC60 rats, n=11)","frequency of stage IV-V SRS ([1]; pilo-DZP, first week)","latency to SRS ([1]; pilo-DZP, n=9)","mean Timm score, upper blade of the dentate gyrus ([2]; pilo-DZP, n=9, score scale 0-5)"
NC(=O)OC[C@@H](O)c1ccccc1Cl [Formula 7],about 9 fold,36%,2.3-6.1 SRS per week,one rat did not become epileptic in a delay of 9 months post-SE,17.6 ± 8.7 days,149.8 ± 36.0 days,15.4 ± 5.1 days,significantly increased over pilo-DZP values,18.9 ± 9.0 days,0.6-0.9 seizure per week,1.5±0.6,2.6±1.0,1.8±0.6,1.2±0.6,1.5±0.7,,,
"CN1C(=O)CN=C(c2ccccc2)c2cc(Cl)ccc21 [DZP, diazepam, reference compound]",,,,,,,,,,,,,,,,11.3 SRS per week,18.2 ± 6.9 days,2.8±0.8
